Data: patent US20070010543A1, “Compositions and methods for treating gastrointestinal hypomotility and associated disorders” (Dynogen Pharmaceuticals, Inc., priority 2005, published 2007)
Values joined by “and” are separate entries in the source; they are usually repeats but may differ in a detail not shown here. Equal values may be shown once.

System: guinea-pig distal colon
Test: Fecal pellet propulsion velocity assay, guinea pig ex vivo colon preparation

SMILES	effect on morphine-induced decrease in motility (in words, summary of Table II)	Motility % control (Morphine 0.10 μM in bath, single preparations)	effect on motility (in words, summary of Table II)
O=C(N[C@H]1CN2CCC1CC2)c1c[nH]c2ccsc2c1=O [DDP733, (R)-N-1-azabicyclo[2.2.2]oct-3-yl-4,7-dihydro-7-oxothieno[3,2-b]pyridine-6-carboxamide]	diminished	–	–
CN1CC[C@]23c4c5ccc(O)c4O[C@H]2[C@@H](O)C=C[C@H]3[C@H]1C5 [Morphine]	–	72 % control and 57 % control and 73 % control and 78 % control	decrease in motility
